{
  "source": "patent US20090176817A1",
  "about": "“Method of Treatment of Diarrhea-Predominant Irritable Bowel Syndrome in a Subject” (priority 2005, published 2009)",
  "test_system": "diarrhea-predominant IBS subjects",
  "test": "Study S241.3.011: IBS-QOL",
  "assay_type": "in vivo, human",
  "settings": "for Mean change in IBS-QoL subscale Body Image / Mean change in IBS-QoL subscale Dysphoria / Mean change in IBS-QoL subscale Food Avoidance / Mean change in IBS-QoL subscale Health Worry / Mean change in IBS-QoL subscale Interference with Activity / Mean change in IBS-QoL subscale Relationship / Mean change in IBS-QoL subscale Sexual / Mean change in IBS-QoL subscale Social Reaction / Mean change in IBS-QoL, Overall: RR (four-week rerandomization) period",
  "text": "Studies S24 1.3.OO6, S24 1.3.0 1 1, and S24 1.3.009 used the following efficacy measurements: • The subjects answered the following three questions with “yes” or “no” using a phone diary at the end of each week: • a) During the last week, did you experience adequate relief of your IBS symptoms, such as abdominal pain, abdominal discomfort, abnormal bowel habits? • b) During the last week, did you experience adequate relief of your abdominal pain and/or discomfort? • c) During the last week, did you experience adequate relief of your abnormal bowel habits? • The subjects rated the following symptoms using the phone diary at the end of each day: • abdominal pain/discomfort (five-point scale); • stool consistency (seven-point Bristol Stool Scale); • stool frequency (number of bowel movements each day); • urgency (five-point scale); • straining (yes or no); • feeling of incomplete defecation (yes or no); • bloating or feeling of abdominal distension (five-point scale). • In Studies S241 A006 and S241.3.009, subjects completed the IBS-QOL Survey at Baseline (Day 1) and at the end of treatment. In Study S24 1.3.0 1 1, subjects completed the IBS-QOL Survey at Baseline (Day 1), at the end of the three-month treatment period, and at the end of rerandomized treatment.\nOther secondary efficacy parameters for all three studies included: • Responder rate for the weekly diary questions on adequate relief at each month, where a responder for a month (monthly responder) was defined as a subject who answered the weekly question with “yes” at least twice for that month. The responder rate was the percentage of responders within a treatment group. The all-month responder rate for the weekly diary questions on adequate relief was also evaluated, where an all-month responder was defined as a subject who answered the weekly question with “yes” at least twice for each month. The all-month responder rate was the percentage of all-month responders within a treatment group; • Adequate relief rate for the weekly diary questions was calculated for each subject as the number of weekly assessments with adequate relief (“yes”) divided by the total number of weekly assessments; • Percentage of subjects with adequate relief for the weekly diary questions at each week; • Daily diary questions regarding abdominal pain/discomfort (five-point scale), stool consistency (seven-point scale), stool frequency (number of bowel movements each day), straining (yes or no), urgency (five-point scale), feeling of incomplete evacuation (yes or no), and bloating or feeling of abdominal distention (five-point scale); • QOL data assessed by the IBS-QOL questionnaire; and • Question to determine the interruption of activities.",
  "data": [
    {"compound": "Cc1nccn1C[C@H]1CCc2c(c3cccc4c3n2CCC4)C1=O", "note": "[Cilansetron, (R)-(−)-4,5,6,8,9,10-hexahydro-10-[(2-methyl-1H-imidazol-1-yl)methyl]-11H-pyrido-[3,2,1-jk]-carbazol-11-one]", "values": [
      {"measurement": "Overall IBS-QOL score, mean change from rerandomization Baseline", "setting": "C/C", "value": 0.9},
      {"measurement": "Overall IBS-QOL score, mean change from rerandomization Baseline", "setting": "C/P", "value": "−4.9"},
      {"measurement": "Overall IBS-QOL score, mean change from rerandomization Baseline", "setting": "P/C", "value": 5.1},
      {"measurement": "Mean change in IBS-QoL subscale Body Image", "setting": "C/C group", "value": "−0.8"},
      {"measurement": "Mean change in IBS-QoL subscale Dysphoria", "setting": "C/C group", "value": "+2.2"},
      {"measurement": "Mean change in IBS-QoL subscale Food Avoidance", "setting": "C/C group", "value": "+0.6"},
      {"measurement": "Mean change in IBS-QoL subscale Health Worry", "setting": "C/C group", "value": "+0.2"},
      {"measurement": "Mean change in IBS-QoL subscale Interference with Activity", "setting": "C/C group", "value": "+1.4"},
      {"measurement": "Mean change in IBS-QoL subscale Relationship", "setting": "C/C group", "value": "+1.7"},
      {"measurement": "Mean change in IBS-QoL subscale Sexual", "setting": "C/C group", "value": "−1.4"},
      {"measurement": "Mean change in IBS-QoL subscale Social Reaction", "setting": "C/C group", "value": "+0.3"},
      {"measurement": "Mean change in IBS-QoL, Overall", "setting": "C/C group", "value": "+0.9"},
      {"measurement": "Mean change in IBS-QoL subscale Body Image", "setting": "C/P group", "value": "−3.0"},
      {"measurement": "Mean change in IBS-QoL subscale Dysphoria", "setting": "C/P group", "value": "−6.0"},
      {"measurement": "Mean change in IBS-QoL subscale Food Avoidance", "setting": "C/P group", "value": "−4.7"},
      {"measurement": "Mean change in IBS-QoL subscale Health Worry", "setting": "C/P group", "value": "−1.0"},
      {"measurement": "Mean change in IBS-QoL subscale Interference with Activity", "setting": "C/P group", "value": "−6.4"},
      {"measurement": "Mean change in IBS-QoL subscale Relationship", "setting": "C/P group", "value": "−3.0"},
      {"measurement": "Mean change in IBS-QoL subscale Sexual", "setting": "C/P group", "value": "−3.5"},
      {"measurement": "Mean change in IBS-QoL subscale Social Reaction", "setting": "C/P group", "value": "−5.9"},
      {"measurement": "Mean change in IBS-QoL, Overall", "setting": "C/P group", "value": "−4.9"},
      {"measurement": "Mean change in IBS-QoL subscale Body Image", "setting": "P/C group", "value": "+5.0"},
      {"measurement": "Mean change in IBS-QoL subscale Dysphoria", "setting": "P/C group", "value": "+1.4"},
      {"measurement": "Mean change in IBS-QoL subscale Food Avoidance", "setting": "P/C group", "value": "+7.9"},
      {"measurement": "Mean change in IBS-QoL subscale Health Worry", "setting": "P/C group", "value": "+2.1"},
      {"measurement": "Mean change in IBS-QoL subscale Interference with Activity", "setting": "P/C group", "value": "+7.9"},
      {"measurement": "Mean change in IBS-QoL subscale Relationship", "setting": "P/C group", "value": "+1.4"},
      {"measurement": "Mean change in IBS-QoL subscale Sexual", "setting": "P/C group", "value": "+1.4"},
      {"measurement": "Mean change in IBS-QoL subscale Social Reaction", "setting": "P/C group", "value": "+3.8"},
      {"measurement": "Mean change in IBS-QoL, Overall", "setting": "P/C group", "value": "+5.1"},
      {"measurement": "IBS-QOL body image, treatment difference", "setting": "vs placebo", "value": 6.60},
      {"measurement": "IBS-QOL dysphoria, treatment difference", "setting": "vs placebo", "value": 8.16},
      {"measurement": "IBS-QOL food avoidance, treatment difference", "setting": "vs placebo", "value": 9.64},
      {"measurement": "IBS-QOL health worry, treatment difference", "setting": "vs placebo", "value": 4.05},
      {"measurement": "IBS-QOL interference with activity, treatment difference", "setting": "vs placebo", "value": 10.57},
      {"measurement": "IBS-QOL overall score, treatment difference in mean change from Baseline at Endpoint", "setting": "vs placebo", "value": 7.53},
      {"measurement": "IBS-QOL relationships, treatment difference", "setting": "vs placebo", "value": 4.72},
      {"measurement": "IBS-QOL sexual, treatment difference", "setting": "vs placebo", "value": 5.93},
      {"measurement": "IBS-QOL social reaction, treatment difference", "setting": "vs placebo", "value": 5.53}
    ]}
  ]
}
